16 molecules from patent US8796466B2, “Hepatitis C virus inhibitors” (Bristol-Myers Squibb Company, priority 2009, dated 2014) can be followed below.

SMILES strings stand for the structures. Like-named read-outs stand apart in the source and are kept apart here.

The subject of the assay is HCV 1b genotype. The experiment in a line: HCV Replicon assay (HCV 1b genotype). It is filed as cell-based, Hepatitis C virus. Conditions: Hepatitis C virus, HCV 1b genotype replicon. As to the method:
An HCV Replicon assay was utilized in the present disclosure, and was prepared, conducted and validated as described in commonly owned PCT/US2006/022197 and in O'Boyle et. al. Antimicrob Agents Chemother. 2005 April; 49(4):1346-53. Assay methods incorporating luciferase reporters have also been used as described (Apath.com).
HCV-neo replicon cells and replicon cells containing mutations in the NS5A region were used to test the currently described family of compounds. The compounds were determined to have more than 10-fold less inhibitory activity on cells containing mutations than wild-type cells. Thus, the compounds of the present disclosure can be effective in inhibiting the function of the HCV NS5A protein and are understood to be as effective in combinations as previously described in application PCT/US2006/022197 and commonly owned WO/04014852. Further, the compounds of the present disclosure can be effective against the HCV 1b genotype. It should also be understood that the compounds of the present disclosure can inhibit multiple genotypes of HCV. […] In one embodiment, compounds of the present disclosure are inhibitory versus 1a, 1b, 2a, 2b, 3a, 4a, and 5a genotypes.
For orientation: Replicon systems follow genome replication, usually without infectious particles.

[1] abbreviates: class symbol, read-out: Range (EC50 values against HCV 1b).
The mark [2] stands for this setting: Effective 50% inhibitory concentration, read-out: 1b EC50.

A word on the EC50: it is the concentration needed to bring the measured effect to its halfway point. As to `COC(=O)N[C@H](C(=O)N1[C@@H]2C[C@@H]2C[C@H]1c1ncc(-c2cccc(C#Cc3cccc(-c4cnc([C@@H]5C[C@H]6C[C@H]6N5C(=O)[C@@H](NC(=O)OC)C(C)C)[nH]4)c3)c2)[nH]1)C(C)C` [Example J3, methyl ((1S)-1-(((1R,3S,5R)-3-(4-(3-((3-(2-((1R,3S,5R)-2-((2S)-2-((methoxycarbonyl)amino)-3-methylbutanoyl)-2-azabicyclo[3.1.0]hex-3-yl)-1H-imidazol-4-yl)phenyl)ethynyl)phenyl)-1H-imidazol-2-yl)-2-azabicyclo[3.1.0]hex-2-yl)carbonyl)-2-methylpropyl)carbamate], the EC50 under setting [1] lay within 2 to 99 pM.

Regarding `COC(=O)N[C@H](C(=O)N1[C@@H]2C[C@@H]2C[C@H]1c1ncc(-c2cccc(C#Cc3cccc(-c4cnc([C@@H]5C[C@H]6C[C@H]6N5C(=O)[C@@H](NC(=O)OC)C5CCOCC5)[nH]4)c3)c2)[nH]1)C1CCOCC1` [Example J4, dimethyl (1,2-ethynediylbis(3,1-phenylene-1H-imidazole-4,2-diyl(1R,3S,5R)-2-azabicyclo[3.1.0]hexane-3,2-diyl((1S)-2-oxo-1-(tetrahydro-2H-pyran-4-yl)-2,1-ethanediyl)))biscarbamate], the EC50 under setting [1] fell in the range of 2 to 99 pM.

For the molecule `COC(=O)N[C@H](C(=O)N1CCC[C@H]1c1nc(-c2ccc(C#Cc3ccc(-c4ccc(-c5c[nH]c([C@@H]6CCCN6C(=O)[C@@H](NC(=O)OC)C(C)C)n5)cc4)cc3)cc2)c[nH]1)C(C)C` [Example J5, methyl ((1S)-1-(((2S)-2-(4-(4′-((4-(2-((2S)-1-((2S)-2-((methoxycarbonyl)amino)-3-methylbutanoyl)-2-pyrrolidinyl)-1H-imidazol-4-yl)phenyl)ethynyl)-4-biphenylyl)-1H-imidazol-2-yl)-1-pyrrolidinyl)carbonyl)-2-methylpropyl)carbamate], the EC50 under setting [1] fell in the range of 2 to 99 pM.

As for `COC(=O)N[C@H](C(=O)N1CCC[C@H]1c1nc(-c2ccc(C#Cc3ccc(-c4c[nH]c([C@@H]5CCCN5C(=O)[C@@H](NC(=O)OC)C(C)C)n4)cc3)cc2)c[nH]1)C(C)C` [Example M1, methyl ((1S)-1-(((2S)-2-(4-(4-((4-(2-((2S)-1-((2S)-2-((methoxycarbonyl)amino)-3-methylbutanoyl)-2-pyrrolidinyl)-1H-imidazol-4-yl)phenyl)ethynyl)phenyl)-1H-imidazol-2-yl)-1-prrolidinyl)carbonyl)-2-methylpropyl)carbamate], under setting [1], the concentration for a half-maximal effect (EC50) is 2 to 99 pM.

Consider `COC(=O)N[C@@H](C(=O)N1CCC[C@H]1c1nc(-c2ccc(C#Cc3ccc(-c4c[nH]c([C@@H]5CCCN5C(=O)[C@H](NC(=O)OC)c5ccccc5)n4)cc3)cc2)c[nH]1)c1ccccc1` [Example M2, dimethyl (1,2-ethynediylbis(4,1-phenylene-1H-imidazole-4,2-diyl(2S)-2,1-pyrrolidinediyl((1R)-2-oxo-1-phenyl-2,1-ethanediyl)))biscarbamate], for which the concentration for a half-maximal effect (EC50) by setting is: under setting [2], 240 pM; under setting [1], 100 to 990 pM.

Consider `COC(=O)N[C@H](C(=O)N1CCC[C@H]1c1nc(-c2ccc(C#Cc3ccc(-c4c[nH]c([C@@H]5CCCN5C(=O)[C@@H](NC(=O)OC)C5CCOCC5)n4)cc3)cc2)c[nH]1)C1CCOCC1` [Example M2.1, dimethyl (1,2-ethynediylbis(4,1-phenylene-1H-imidazole-4,2-diyl(2S)-2,1-pyrrolidinediyl((1S)-2-oxo-1-(tetrahydro-2H-pyran-4-yl)-2,1-ethanediyl)))biscarbamate], for which the EC50 under setting [1] lay in the range of 2 to 99 pM.

On to `COC(=O)N[C@H](C(=O)N1[C@@H]2C[C@@H]2C[C@H]1c1nc(-c2ccc(C#Cc3ccc(-c4c[nH]c([C@@H]5C[C@H]6C[C@H]6N5C(=O)[C@@H](NC(=O)OC)C(C)C)n4)cc3)cc2)c[nH]1)C(C)C` [Example M3, methyl ((1S)-1-(((1R,3S,5R)-3-(4-(4-((4-(2-((1R,3S,5R)-2-((2S)-2-((methoxycarbonyl)amino)-3-methylbutanoyl)-2-azabicyclo[3.1.0]hex-3-yl)-1H-imidazol-4-yl)phenyl)ethynyl)phenyl)-1H-imidazol-2-yl)-2-azabicyclo[3.1.0]hex-2-yl)carbonyl)-2-methylpropyl)carbamate], for which, under setting [1], the EC50 lay in the range of 2 to 99 pM.

On to `CC[C@H](NC(=O)OC)C(=O)N1[C@@H]2C[C@@H]2C[C@H]1c1nc(-c2ccc(C#Cc3ccc(-c4c[nH]c([C@@H]5C[C@H]6C[C@H]6N5C(=O)[C@H](CC)NC(=O)OC)n4)cc3)cc2)c[nH]1` [Example M4, dimethyl (1,2-ethynediylbis(4,1-phenylene-1H-imidazole-4,2-diyl(1R,3S,5R)-2-azabicyclo[3.1.0]hexane-3,2-diyl((2S)-1-oxo-1,2-butanediyl)))biscarbamate], for which the 50% effective concentration (EC50) under setting [1] is 2 to 99 pM.

For the molecule `COC(=O)N[C@H](C(=O)N1[C@@H]2C[C@@H]2C[C@H]1c1nc(-c2ccc(C#Cc3ccc(-c4c[nH]c([C@@H]5C[C@H]6C[C@H]6N5C(=O)[C@@H](NC(=O)OC)C5CCC5)n4)cc3)cc2)c[nH]1)C1CCC1` [Example M5, dimethyl (1,2-ethynediylbis(4,1-phenylene-1H-imidazole-4,2-diyl(1R,3S,5R)-2-azabicyclo[3.1.0]hexane-3,2-diyl((1S)-1-cyclobutyl-2-oxo-2,1-ethanediyl)))biscarbamate], the EC50 under setting [1] is 100 to 990 pM.

For `COC(=O)N[C@H](C(=O)N1[C@@H]2C[C@@H]2C[C@H]1c1nc(-c2ccc(C#Cc3ccc(-c4c[nH]c([C@@H]5C[C@H]6C[C@H]6N5C(=O)[C@@H](NC(=O)OC)C5CCOCC5)n4)cc3)cc2)c[nH]1)C1CCOCC1` [Example M6, dimethyl (1,2-ethynediylbis(4,1-phenylene-1H-imidazole-4,2-diyl(1R,3S,5R)-2-azabicyclo[3.1.0]hexane-3,2-diyl((1S)-2-oxo-1-(tetrahydro-2H-pyran-4-yl)-2,1-ethanediyl)))biscarbamate], the EC50 is 3.3 pM under setting [2] and 2 to 99 pM under setting [1].

As for `COC(=O)N[C@H](C(=O)N1[C@@H]2C[C@@H]2C[C@H]1c1nc(-c2ccc(C#Cc3ccc(-c4c[nH]c([C@@H]5C[C@H]6C[C@H]6N5C(=O)[C@@H](NC(=O)OC)C5CCOCC5)n4)cc3)cc2)c[nH]1)C(C)C` [Example M7, methyl ((1S)-1-(((1R,3S,5R)-3-(4-(4-((4-(2-((1R,3S,5R)-2-((2S)-2-((methoxycarbonyl)amino)-2-(tetrahydro-2H-pyran-4-yl)acetyl)-2-azabicyclo[3.1.0]hex-3-yl)-1H-imidazol-4-yl)phenyl)ethynyl)phenyl)-1H-imidazol-2-yl)-2-azabicyclo[3.1.0]hex-2-yl)carbonyl)-2-methylpropyl)carbamate], the EC50 under setting [1] lay within 2 to 99 pM.

As to `COC(=O)N[C@H](C(=O)N1[C@@H]2C[C@@H]2C[C@H]1c1nc(-c2ccc(C#Cc3ccc(-c4[nH]c([C@@H]5C[C@H]6C[C@H]6N5C(=O)[C@@H](NC(=O)OC)C(C)C)nc4Cl)cc3)cc2)c[nH]1)C(C)C` [Example M8, methyl ((1S)-1-(((1R,3S,5R)-3-(4-chloro-5-(4-((4-(2-((1R,3S,5R)-2-((2S)-2-((methoxycarbonyl)amino)-3-methylbutanoyl)-2-azabicyclo[3.1.0]hex-3-yl)-1H-imidazol-4-yl)phenyl)ethynyl)phenyl)-1H-imidazol-2-yl)-2-azabicyclo[3.1.0]hex-2-yl)carbonyl)-2-methylpropyl)carbamate], under setting [1], the EC50 was 2 to 99 pM.

As to `COC(=O)N[C@H](C(=O)N1[C@@H]2C[C@@H]2C[C@H]1c1nc(Cl)c(-c2ccc(C#Cc3ccc(-c4[nH]c([C@@H]5C[C@H]6C[C@H]6N5C(=O)[C@@H](NC(=O)OC)C(C)C)nc4Cl)cc3)cc2)[nH]1)C(C)C` [Example M9, methyl ((1S)-1-(((1R,3S,5R)-3-(4-chloro-5-(4-((4-(4-chloro-2-((1R,3S,5R)-2-((2S)-2-((methoxycarbonyl)amino)-3-methylbutanoyl)-2-azabicyclo[3.1.0]hex-3-yl)-1H-imidazol-5-yl)phenyl)ethynyl)phenyl)-1H-imidazol-2-yl)-2-azabicyclo[3.1.0]hex-2-yl)carbonyl)-2-methylpropyl)carbamate], the concentration for a half-maximal effect (EC50) under setting [1] lay in the range of 2 to 99 pM.

On to `COC(=O)N[C@H](C(=O)N1[C@@H]2C[C@@H]2C[C@H]1c1nc(-c2ccc(C#Cc3ccc(-c4[nH]c([C@@H]5C[C@H]6C[C@H]6N5C(=O)[C@@H](NC(=O)OC)C5CCOCC5)nc4Cl)cc3)cc2)c[nH]1)C1CCOCC1` [Example M9.1, methyl ((1S)-2-((1R,3S,5R)-3-(4-(4-((4-(4-chloro-2-((1R,3S,5R)-2-((2S)-2-((methoxycarbonyl)amino)-2-(tetrahydro-2H-pyran-4-yl)acetyl)-2-azabicyclo[3.1.0]hex-3-yl)-1H-imidazol-5-yl)phenyl)ethynyl)phenyl)-1H-imidazol-2-yl)-2-azabicyclo[3.1.0]hex-2-yl)-2-oxo-1-(tetrahydro-2H-pyran-4-yl)ethyl)carbamate], for which the EC50 under setting [1] lay within 2 to 99 pM.

As for `COC(=O)N[C@H](C(=O)N1[C@@H]2C[C@@H]2C[C@H]1c1nc(Cl)c(-c2ccc(C#Cc3ccc(-c4[nH]c([C@@H]5C[C@H]6C[C@H]6N5C(=O)[C@@H](NC(=O)OC)C5CCOCC5)nc4Cl)cc3)cc2)[nH]1)C1CCOCC1` [Example M9.2, dimethyl (1,2-ethynediylbis(4,1-phenylene(4-chloro-1H-imidazole-5,2-diyl)(1R,3S,5R)-2-azabicyclo[3.1.0]hexane-3,2-diyl((1S)-2-oxo-1-(tetrahydro-2H-pyran-4-yl)-2,1-ethanediyl)))biscarbamate], under setting [1], the EC50 lay within 2 to 99 pM.

As to `COC(=O)N[C@H](C(=O)N1[C@@H]2C[C@@H]2C[C@H]1c1ncc(-c2ccc([C@H]3C[C@@H]3c3ccc(-c4cnc([C@@H]5C[C@H]6C[C@H]6N5C(=O)[C@@H](NC(=O)OC)C(C)C)[nH]4)cc3)cc2)[nH]1)C(C)C` [Example M9.3], under setting [1], the EC50 was in the range of 2 to 99 pM.
